# Source: ChEMBL document CHEMBL3044877, “Synthesis and crystal structure of chalcones as well as on cytotoxicity and antibacterial properties” (Med Chem Res, 2012)
# Legend:
# SGC-7901 = test: Cytotoxicity against Homo sapiens (human) SGC7901 cells after 72 hr by MTT assay; assay type: functional, cell-based
# HT-29 = test: Cytotoxicity against Homo sapiens (human) HT-29 cells after 72 hr by MTT assay; assay type: functional, cell-based
# Enterococcus faecium = test: Antibacterial activity against multidrug-resistant Enterococcus faecium 609205; assay type: functional
# Enterococcus faecalis = test: Antibacterial activity against multidrug-resistant Enterococcus faecalis 609230; assay type: functional
# [1] = tested on: Staphylococcus epidermidis; test: Antibacterial activity against multidrug-resistant Staphylococcus epidermidis 619083; assay type: functional
# [2] = tested on: Staphylococcus epidermidis; test: Antibacterial activity against multidrug-resistant Staphylococcus epidermidis 620206; assay type: functional
# Staphylococcus aureus [3] = test: Antibacterial activity against multidrug-resistant Staphylococcus aureus 701219; assay type: functional
# Staphylococcus aureus [4] = test: Antibacterial activity against multidrug-resistant Staphylococcus aureus 701230; assay type: functional
# Staphylococcus aureus [5] = test: Antibacterial activity against multidrug-resistant Staphylococcus aureus ATCC 25923; assay type: functional
# Staphylococcus aureus [6] = test: Antibacterial activity against Staphylococcus aureus after 24 hr; assay type: functional
# Pseudomonas aeruginosa [7] = test: Antibacterial activity against multidrug-resistant Pseudomonas aeruginosa 710218; assay type: functional
# Pseudomonas aeruginosa [8] = test: Antibacterial activity against multidrug-resistant Pseudomonas aeruginosa 630266; assay type: functional
# Acinetobacter baumannii [9] = test: Antibacterial activity against multidrug-resistant Acinetobacter baumannii B-8 303211; assay type: functional
# Acinetobacter baumannii [10] = test: Antibacterial activity against multidrug-resistant Acinetobacter baumannii B-5 302234; assay type: functional
# Klebsiella pneumoniae [11] = test: Antibacterial activity against multidrug-resistant Klebsiella pneumoniae 626238; assay type: functional
# Klebsiella pneumoniae [12] = test: Antibacterial activity against multidrug-resistant Klebsiella pneumoniae 626511; assay type: functional
# Escherichia coli [13] = test: Antibacterial activity against multidrug-resistant Escherichia coli 629247; assay type: functional
# Escherichia coli [14] = test: Antibacterial activity against multidrug-resistant Escherichia coli 629119; assay type: functional
# [15] = Homo sapiens, SGC-7901, 72 h, read-out: IC50
# [16] = Homo sapiens, HT-29, 72 h, read-out: IC50
structure (smiles),measurement,setting,value
COc1ccc(C(=O)/C=C/c2ccc(Cl)cc2Cl)cc1,IC50,SGC-7901; [15],12.6 µM
same,IC50,HT-29; [16],18.9 µM
CN(C)c1ccc(/C=C/C(=O)c2cc(F)cc(F)c2)cc1,IC50,SGC-7901; sgc-7901,Not Active
same,IC50,HT-29; ht-29,Not Active
COc1ccc(/C=C/C(=O)c2ccc(OC)c(OC)c2)cc1,IC50,SGC-7901; [15],102 µM
same,IC50,HT-29; [16],54.6 µM
COc1ccc(C(=O)/C=C/c2ccccc2OC)cc1,IC50,SGC-7901; sgc-7901,Not Active
COc1ccc(/C=C/C(=O)c2ccccc2O)c(Cl)c1,IC50,SGC-7901; [15],62.1 µM
same,IC50,HT-29; [16],59.5 µM
COc1ccc(C(=O)/C=C/c2ccccc2Br)cc1OC,IC50,SGC-7901; [15],21.4 µM
same,IC50,HT-29; [16],14 µM
COc1ccc(C(=O)/C=C/c2ccccc2Cl)cc1OC,IC50,SGC-7901; [15],24.7 µM
same,IC50,HT-29; [16],15.5 µM
O=C(/C=C/c1ccccc1C(F)(F)F)c1ccccc1,IC50,SGC-7901; [15],40.3 µM
same,IC50,HT-29; [16],42.9 µM
O=c1[nH]cc(F)c(=O)[nH]1 [FLUOROURACIL],IC50,"SGC-7901; Homo sapiens, SGC-7901, 72 h",29.2 µM
same,IC50,HT-29; [16],9.72 µM
COc1ccc(C(=O)/C=C/c2ccccc2C(F)(F)F)cc1,IC50,HT-29; [16],36.4 µM
Nc1ccc(C(=O)/C=C/c2ccc(Cl)cc2Cl)cc1,IC50,SGC-7901; [15],87.7 µM
same,IC50,HT-29; [16],40 µM
COc1ccc(/C=C/C(=O)c2cc(F)cc(F)c2)c(OC)c1,IC50,SGC-7901; [15],55.5 µM
same,IC50,HT-29; ht-29,Not Active
O=C(/C=C/c1ccc(Cl)cc1Cl)c1ccccc1O,IC50,HT-29; [16],42.4 µM
COc1ccc(C(=O)/C=C/c2ccc(OC)cc2Cl)cc1,IC50,SGC-7901; [15],19.2 µM
same,IC50,HT-29; [16],49.1 µM
COc1ccc(C(=O)/C=C/c2cccc(OC)c2OC)cc1,IC50,SGC-7901; [15],13.1 µM
same,IC50,HT-29; [16],41.7 µM
Nc1ccc(C(=O)/C=C/c2ccccc2Cl)cc1,IC50,SGC-7901; [15],11.2 µM
same,IC50,HT-29; [16],26.2 µM
COc1ccccc1/C=C/C(=O)c1cc(F)cc(F)c1,IC50,SGC-7901; [15],75.4 µM
same,IC50,HT-29; [16],53.2 µM
CN(C)c1ccc(/C=C/C(=O)c2cccc(N)c2)cc1,IC50,HT-29; ht-29,Not Active
COc1ccc(/C=C/C(=O)c2ccc(N)cc2)c(Cl)c1,MIC,Enterococcus faecium,> 1000 µg/mL
same,MIC,Enterococcus faecalis,537 µg/mL
same,MIC,[1],> 1000 µg/mL
same,MIC,[2],> 1000 µg/mL
same,MIC,Staphylococcus aureus [3],> 1000 µg/mL
same,MIC,Staphylococcus aureus [4],537 µg/mL
same,MIC,Staphylococcus aureus [5],537 µg/mL
same,IC50,SGC-7901; [15],20.2 µM
same,IC50,HT-29; [16],55.7 µM
COc1ccc(/C=C/C(=O)c2ccc(OC)c(OC)c2)c(OC)c1,IC50,SGC-7901; sgc-7901,Not Active
same,IC50,HT-29; [16],65.5 µM
COc1ccc(C(=O)/C=C/c2ccc(Cl)cc2Cl)cc1OC,IC50,SGC-7901; [15],60.5 µM
same,IC50,HT-29; [16],18.7 µM
COc1ccc(C(=O)/C=C/c2ccccc2F)cc1,IC50,SGC-7901; [15],21.2 µM
same,IC50,HT-29; [16],18.9 µM
COc1ccc(C(=O)/C=C/c2ccccc2Br)cc1,IC50,SGC-7901; [15],20 µM
same,IC50,HT-29; [16],25.7 µM
COc1ccc(/C=C/C(=O)c2ccc(N)cc2)c(OC)c1,IC50,SGC-7901; sgc-7901,Not Active
same,IC50,HT-29; ht-29,Not Active
COc1ccc(C(=O)/C=C/c2ccc(N(C)C)cc2)cc1OC,IC50,SGC-7901; sgc-7901,Not Active
same,IC50,HT-29; [16],49.8 µM
COc1ccc(/C=C/C(=O)c2ccccc2)c(OC)c1,IC50,HT-29; [16],131 µM
Nc1ccc(C(=O)/C=C/c2ccccc2C(F)(F)F)cc1,IC50,SGC-7901; [15],15.7 µM
COc1ccc(/C=C/C(=O)c2cccc(N)c2)c(Cl)c1,IC50,SGC-7901; [15],53.8 µM
same,IC50,HT-29; [16],42.8 µM
O=C(/C=C/c1ccc(O)cc1)c1ccccc1 [4-HYDROXYCHALCONE],MIC,Staphylococcus aureus [6],125 µg/mL
same,MIC,Pseudomonas aeruginosa [7],158 µg/mL
same,MIC,Pseudomonas aeruginosa [8],> 1000 µg/mL
same,MIC,Acinetobacter baumannii [9],158 µg/mL
same,MIC,Acinetobacter baumannii [10],158 µg/mL
same,MIC,Klebsiella pneumoniae [11],> 1000 µg/mL
same,MIC,Klebsiella pneumoniae [12],> 1000 µg/mL
same,MIC,Escherichia coli [13],158 µg/mL
same,MIC,Escherichia coli [14],158 µg/mL
same,MIC,Enterococcus faecium,315 µg/mL
same,MIC,Enterococcus faecalis,158 µg/mL
same,MIC,[1],158 µg/mL
same,MIC,[2],158 µg/mL
same,MIC,Staphylococcus aureus [3],158 µg/mL
same,MIC,Staphylococcus aureus [4],158 µg/mL
same,MIC,Staphylococcus aureus [5],158 µg/mL
same,IC50,SGC-7901; [15],13.7 µM
same,IC50,HT-29; [16],24.6 µM
COc1ccc(C(=O)/C=C/c2ccc(O)cc2)cc1,MIC,Pseudomonas aeruginosa [7],> 1000 µg/mL
same,MIC,Pseudomonas aeruginosa [8],> 1000 µg/mL
same,MIC,Acinetobacter baumannii [9],548 µg/mL
same,MIC,Acinetobacter baumannii [10],548 µg/mL
same,MIC,Klebsiella pneumoniae [11],> 1000 µg/mL
same,MIC,Klebsiella pneumoniae [12],> 1000 µg/mL
same,MIC,Escherichia coli [13],548 µg/mL
same,MIC,Escherichia coli [14],548 µg/mL
same,MIC,Enterococcus faecium,> 1000 µg/mL
same,MIC,Enterococcus faecalis,81 µg/mL
same,MIC,[1],20 µg/mL
same,MIC,[2],81 µg/mL
same,MIC,Staphylococcus aureus [3],81 µg/mL
same,MIC,Staphylococcus aureus [4],81 µg/mL
same,MIC,Staphylococcus aureus [5],40 µg/mL
same,IC50,SGC-7901; [15],14.7 µM
same,IC50,HT-29; [16],18.6 µM
COc1ccc(C(=O)/C=C/c2cccc(OC)c2OC)cc1OC,IC50,SGC-7901; [15],70.7 µM
same,IC50,HT-29; [16],35.9 µM
C[C@H]1COc2c(N3CCN(C)CC3)c(F)cc3c(=O)c(C(=O)O)cn1c23.C[C@H]1COc2c(N3CCN(C)CC3)c(F)cc3c(=O)c(C(=O)O)cn1c23.O [LEVOFLOXACIN],MIC,Pseudomonas aeruginosa [7],> 1000 µg/mL
same,MIC,Pseudomonas aeruginosa [8],325 µg/mL
same,MIC,Acinetobacter baumannii [9],12.5 µg/mL
same,MIC,Acinetobacter baumannii [10],> 1000 µg/mL
same,MIC,Klebsiella pneumoniae [11],> 1000 µg/mL
same,MIC,Klebsiella pneumoniae [12],125 µg/mL
same,MIC,Escherichia coli [13],25 µg/mL
same,MIC,Escherichia coli [14],> 1000 µg/mL
same,MIC,Enterococcus faecium,> 1000 µg/mL
same,MIC,Enterococcus faecalis,> 1000 µg/mL
same,MIC,[1],125 µg/mL
same,MIC,[2],> 1000 µg/mL
same,MIC,Staphylococcus aureus [3],100 µg/mL
same,MIC,Staphylococcus aureus [4],12.5 µg/mL
same,MIC,Staphylococcus aureus [5],12.5 µg/mL
Nc1ccc(C(=O)/C=C/c2ccccc2F)cc1,IC50,SGC-7901; [15],7.44 µM
same,IC50,HT-29; [16],47.8 µM
COc1ccc(/C=C/C(=O)c2ccccc2O)c(OC)c1,IC50,SGC-7901; sgc-7901,Not Active
same,IC50,HT-29; ht-29,Not Active
COc1ccc(C(=O)/C=C/c2ccc(F)cc2F)cc1,IC50,SGC-7901; [15],48.4 µM
same,IC50,HT-29; [16],11.1 µM
COc1ccc(/C=C/C(=O)c2cc(F)cc(F)c2)cc1,IC50,SGC-7901; sgc-7901,Not Active
same,IC50,HT-29; [16],101 µM
